Here are results for 74 compounds from patent US6670382B2, “Hydroxyformamidine derivatives and medicines containing the same” (Taisho Pharmaceutical Co., Ltd., priority 2000, dated 2003).

By IC50 is commonly meant the concentration at which inhibition is half-maximal. Read a low IC50 as greater potency. In general, melting point refers to the temperature, or range, at which the solid turns liquid.

The subject of series [1] is 20-HETE synthase derived from rat kidney microsome. Nature of the series: Inhibitory effect of 20-HETE synthase derived from rat kidney microsome. The conditions noted are these: SHR rat kidney microsome; for IC50: concentration at which 20-HETE production was inhibited to 50%; for Inhibition (1 µM): inhibition rate of 20-HETE production, subject compound 1 μM, 3H-arachidonic acid, NADPH, 1.5 hours at 37° C., pH 7.4. Format: biochemical. The procedure: [Inhibitory Effect of 20-HETE Synthase Derived from Rat Kidney Microsome]
Regarding the compounds listed in the Table described above, their inhibitory activities on production of 20-HETE were examined.
This examination was carried out based on the method described in J. Pharmacol. Exp. Ther., Vol. 268, p. 474 (1994).
The subject compound in an amount of 1 μM was added to a 50 mM of 3-morpholinopropanesulfonic acid buffer (MOPS) (pH 7.4), containing 5 mM of magnesium chloride, and 1 mM of ethylenediaminetetraacetic acid (EDTA) disodium salt.
Subsequently, the rat kidney microsome fraction prepared from the kidney of a spontaneously hypertensive rat (male, 6 weeks of age) as an enzyme, [5,6,8,9,11,12,14,15] tritium-arachidonic acid (supplied by Amasham) as a substrate, and NADPH (supplied by Sigma) as a coenzyme were added, and were reacted for 1.5 hours at 37° C.
After the reaction was quenched by adding formic acid (supplied by Wako Pure Chemical Industries Ltd.) to the reaction solution, acetonitrile (final concentration of 50%) was added thereto, and the mixture was allowed to stand for 1.5 hours at room temperature. The amount of 20-HETE production was measured by using a high performance liquid chromatography having a detector for radioactive substances (supplied by Gilson), equipped with an ODS column (Biocyl C18, supplied by Bio-rad).
Setting an amount of 20-HETE production to 100% when no subject compound was added, the inhibition rate (%) was calculated from the amount of 20-HETE production when a subject compound was added.
In addition, setting an amount of 20-HETE production to 100% when no subject compound was added, the concentration of the subject compound at which the production of the 20-HETE was inhibited to 50% when the subject compound is added (IC50 value) was also calculated.

`O/N=C/Nc1ccc(OCc2ccco2)nc1` [Comp. 3]: in series [1], the IC50 turned out to be 49.6 nM and the “Inhibition (1 µM)” value amounted to 102.0%. With `O/N=C/Nc1ccc(OCc2ccccn2)nc1` [Comp. 6, N-[2-(pyridin-2-ylmethoxy)pyridin-5-yl]-N′-hydroxyformamidine], the melting point fell in the range of 153.5 to 155.5 °C. For `O/N=C/Nc1ccc(OCC2CCCCC2)nc1` [Comp. 11], in series [1], 2.7 nM corresponded to half-maximal inhibition (IC50) and the “Inhibition (1 µM)” value stood at 89.0%.

In the case of `COCCOCCOc1ccc(N/C=N/O)cn1` [Comp. 12], in series [1], the midpoint of inhibition, the IC50, lay at 87.2 nM and the “Inhibition (1 µM)” value came to 99.0%. With `CC1(C)OCC(COc2ccc(N/C=N/O)cn2)O1` (stereo not drawn) [Comp. 13], in series [1], the IC50 worked out at 24 nM and the “Inhibition (1 µM)” value was determined as 101.0%. For `O/N=C/Nc1ccc(OCCCc2ccccc2)nc1` [Comp. 14], in series [1], inhibition was half-maximal at 1.5 nM (IC50) and the “Inhibition (1 µM)” value was 104.0%.

For the compound `O/N=C/Nc1ccc(OCc2cccs2)nc1` [Comp. 15], in series [1], the midpoint of inhibition, the IC50, lay at 9.3 nM and the “Inhibition (1 µM)” value came out at 100.0%.

Take `CCN(CC)CCOc1ccc(N/C=N/O)cn1` [Comp. 16]: in series [1], the “Inhibition (1 µM)” value is reported as 60.0%.

Turning to `Cc1ncsc1CCOc1ccc(N/C=N/O)cn1` [Comp. 17], in series [1], the IC50 is 2.1 nM and the “Inhibition (1 µM)” value amounted to 100.0%.

`CC(C)=CCOc1ccc(N/C=N/O)cn1` [Comp. 18]: the “Inhibition (1 µM)” value in series [1] is reported as 86.0%. Still for that read-out and setting: for `CC(C)OCCOc1ccc(N/C=N/O)cn1` [Comp. 19] the value was 104.0%; for `C#CCCOc1ccc(N/C=N/O)cn1` [Comp. 20], 31.0%. Turning to `O/N=C/Nc1ccc(OCC2CC2)nc1` [Comp. 21], the “Inhibition (1 µM)” value in series [1] was found to be 73.0%. On to `O/N=C/Nc1ccc(OCCC2CCCCC2)nc1` [Comp. 22], for which, in series [1], the IC50 amounted to 2.1 nM and the “Inhibition (1 µM)” value is on record as 108.0%. `O/N=C/Nc1ccc(OCc2ccncc2)nc1` [Comp. 23]: in series [1], 3.9 nM corresponded to half-maximal inhibition (IC50) and the “Inhibition (1 µM)” value turned out to be 104.0%.

With `O/N=C/Nc1ccc(OCCSc2ccccn2)nc1` [Comp. 25], in series [1], the IC50 was determined as 9.6 nM and the “Inhibition (1 µM)” value amounted to 71.0%.

Regarding `O/N=C/Nc1ccc(OCC2CCC2)nc1` [Comp. 26], in series [1], half-maximal inhibition (IC50) was put at 27.2 nM and the “Inhibition (1 µM)” value was 99.0%. On to `O/N=C/Nc1ccc(OCCOC2CCCCC2)nc1` [Comp. 27], for which the “Inhibition (1 µM)” value in series [1] was 71.0%. On to `CCSCCOc1ccc(N/C=N/O)cn1` [Comp. 28], for which, in series [1], the IC50 is 9.9 nM and the “Inhibition (1 µM)” value was determined as 105.0%. Consider `O/N=C/Nc1ccc(OCCCCC2CCCCC2)nc1` [Comp. 29], for which the “Inhibition (1 µM)” value in series [1] was 101.0%.

Consider `CC(C)(C)CCOc1ccc(N/C=N/O)cn1` [Comp. 30], for which the “Inhibition (1 µM)” value in series [1] is given as 102.0%. Regarding `O/N=C/Nc1ccc(OCCCc2cccnc2)nc1` [Comp. 33], in series [1], inhibition was half-maximal at 2.1 nM (IC50) and the “Inhibition (1 µM)” value was found to be 93.0%. Take `CC1(C)COC(CCOc2ccc(N/C=N/O)cn2)OC1` [Comp. 34]: in series [1], it took 7.6 nM to reach half-maximal inhibition (IC50) and the “Inhibition (1 µM)” value stood at 89.0%. On to `O/N=C/Nc1ccc(OCC2CC3CCC2C3)nc1` (stereo not drawn) [Comp. 35], for which the “Inhibition (1 µM)” value in series [1] was found to be 98.0%. On to `O/N=C/Nc1ccc(OCCCOc2ccccc2)nc1` [Comp. 36], for which, in series [1], the IC50 was 2.7 nM and the “Inhibition (1 µM)” value came out at 104.0%. Turning to `O/N=C/Nc1ccc(OCCCc2ccncc2)nc1` [Comp. 37], in series [1], inhibition was half-maximal at 3.4 nM (IC50) and the “Inhibition (1 µM)” value is recorded as 96.0%.

In the case of `O/N=C/Nc1ccc(OCc2ccsc2)nc1` [Comp. 38], in series [1], half-maximal inhibition (IC50) required 8.5 nM and the “Inhibition (1 µM)” value came out at 95.0%. Consider `CC(C)(C)COc1ccc(N/C=N/O)cn1` [Comp. 39], for which the “Inhibition (1 µM)” value in series [1] is 62.0%. With `O/N=C/Nc1ccc(OCc2ccoc2)nc1` [Comp. 40], in series [1], the “Inhibition (1 µM)” value is 86.0%.

Consider `Cc1cccc(COc2ccc(N/C=N/O)cn2)n1` [Comp. 41], for which, in series [1], the “Inhibition (1 µM)” value worked out at 83.0%. On the same count and under the same terms, for `CCCCCCOc1ccc(N/C=N/O)cn1` [Comp. 42] the value was 105.8%.

As to `CCCCCCCOc1ccc(N/C=N/O)cn1` [Comp. 43], in series [1], the “Inhibition (1 µM)” value was 89.5%. `CCCCCCCCOc1ccc(N/C=N/O)cn1` [Comp. 44]: the “Inhibition (1 µM)” value in series [1] is 100.7%.

For the compound `CCC(C)CCOc1ccc(N/C=N/O)cn1` (stereo not drawn) [Comp. 48], the “Inhibition (1 µM)” value in series [1] is on record as 102.8%.

`CC(C)CCCOc1ccc(N/C=N/O)cn1` [Comp. 49]: the “Inhibition (1 µM)” value in series [1] came out at 107.1%.

Turning to `O/N=C/Nc1ccc(OCCCCCc2ccccc2)nc1` [Comp. 50], the “Inhibition (1 µM)” value in series [1] came out at 108.2%. In the case of `CC(C)=CCC/C(C)=C\COc1ccc(N/C=N/O)cn1` [Comp. 51], the “Inhibition (1 µM)” value in series [1] stood at 111.0%. Consider `CC(C)=CCC/C(C)=C/COc1ccc(N/C=N/O)cn1` [Comp. 52], for which the “Inhibition (1 µM)” value in series [1] is listed as 108.7%.

On to `O/N=C/Nc1ccc(OCC2CCCCCC2)nc1` [Comp. 57], for which the “Inhibition (1 µM)” value in series [1] is given as 114.2%. As to `C/C=C/C=C/COc1ccc(N/C=N/O)cn1` [Comp. 58], in series [1], the “Inhibition (1 µM)” value amounted to 106.6%. As for `Cc1ccc(CCOc2ccc(N/C=N/O)cn2)cc1` [Comp. 60], in series [1], the “Inhibition (1 µM)” value is 109.9%. Consider `CC(=O)OCCOc1ccc(N/C=N/O)cn1` [Comp. 62], for which the “Inhibition (1 µM)” value in series [1] is recorded as 112.8%. For `COc1ccc(CCCOc2ccc(N/C=N/O)cn2)cc1OC` [Comp. 63], the “Inhibition (1 µM)” value in series [1] was 102.3%.

Take `COc1ccc(CCCOc2ccc(N/C=N/O)cn2)cc1` [Comp. 64]: in series [1], the “Inhibition (1 µM)” value is 100.7%. `O/N=C/Nc1ccc(OCCc2ccc(Br)cc2)nc1` [Comp. 67]: the “Inhibition (1 µM)” value in series [1] was found to be 108.6%. On the same count and under the same terms, for `CCOC(=O)CCCCCOc1ccc(N/C=N/O)cn1` [Comp. 68] the value was 102.6%; for `CC(C)=CCCC(C)CCOc1ccc(N/C=N/O)cn1` (stereo not drawn) [Comp. 70], 108.1%; for `O/N=C/Nc1ccc(OCCCCc2ccccc2)nc1` [Comp. 71], 99.0%. On to `O/N=C/Nc1ccc(OCc2ccc(Cl)cc2Cl)nc1` [Comp. 74], for which, in series [1], the “Inhibition (1 µM)” value is given as 69.3%. As for `O/N=C/Nc1ccc(OCc2ccccc2CCc2ccccc2)nc1` [Comp. 75], the “Inhibition (1 µM)” value in series [1] is 88.5%. With `O/N=C/Nc1ccc(OCc2cccc(Oc3ccccc3)c2)nc1` [Comp. 76], the “Inhibition (1 µM)” value in series [1] came out at 100.2%. On to `Cc1cccc(COc2ccc(N/C=N/O)cn2)c1` [Comp. 79], for which the “Inhibition (1 µM)” value in series [1] amounted to 100.6%. In the case of `COC(=O)c1ccc(COc2ccc(N/C=N/O)cn2)cc1` [Comp. 83], the “Inhibition (1 µM)” value in series [1] came out at 98.8%. As to `O/N=C/Nc1ccc(OCc2ccc(-c3ccccc3)cc2)nc1` [Comp. 84], the “Inhibition (1 µM)” value in series [1] came to 105.3%. As for `CCN(CCOc1ccc(N/C=N/O)cn1)c1cccc(C)c1` [Comp. 85], the “Inhibition (1 µM)” value in series [1] amounted to 100.8%. With `COC(=O)COc1ccc(N/C=N/O)cn1` [Comp. 86], in series [1], the “Inhibition (1 µM)” value came to 82.6%. Same read-out and setting: for `Cn1c(=O)c2c(ncn2CCOc2ccc(N/C=N/O)cn2)n(C)c1=O` [Comp. 88] the value was 71.8%.

For `O/N=C/Nc1ccc(OCCn2cccc2)nc1` [Comp. 90], in series [1], the IC50 was determined as 4.3 nM and the “Inhibition (1 µM)” value came to 105.7%. In the case of `O/N=C/Nc1ccc(OCCSc2ccccc2)nc1` [Comp. 95], the “Inhibition (1 µM)” value in series [1] was found to be 96.5%. As for `O/N=C/Nc1ccc(SCc2ccc(Cl)cc2)nc1` [Comp. 100], in series [1], the “Inhibition (1 µM)” value came out at 79.5%. As to `O/N=C/Nc1ccc(SC2CCCCC2)nc1` [Comp. 101], in series [1], the “Inhibition (1 µM)” value came out at 91.8%. For `CCOC(=O)CSc1ccc(N/C=N/O)cn1` [Comp. 103], the “Inhibition (1 µM)” value in series [1] came out at 79.9%. For `CCCCSc1ccc(N/C=N/O)cn1` [Comp. 105], in series [1], the “Inhibition (1 µM)” value was 100.5%.

Turning to `CC(C)CCSc1ccc(N/C=N/O)cn1` [Comp. 106], the “Inhibition (1 µM)” value in series [1] came out at 77.5%. On to `COC(=O)CSc1ccc(N/C=N/O)cn1` [Comp. 108], for which the “Inhibition (1 µM)” value in series [1] was 89.7%.

Consider `CCCCCSc1ccc(N/C=N/O)cn1` [Comp. 112], for which the “Inhibition (1 µM)” value in series [1] worked out at 101.5%.

`CCCCCCSc1ccc(N/C=N/O)cn1` [Comp. 113]: the “Inhibition (1 µM)” value in series [1] stood at 81.3%. Turning to `CCCCCCCSc1ccc(N/C=N/O)cn1` [Comp. 114], the “Inhibition (1 µM)” value in series [1] came out at 85.1%. On to `CCCCCCCCCSc1ccc(N/C=N/O)cn1` [Comp. 115], for which, in series [1], the “Inhibition (1 µM)” value was 89.0%.

Regarding `COC(=O)CCSc1ccc(N/C=N/O)cn1` [Comp. 116], the “Inhibition (1 µM)” value in series [1] is 93.1%.

`CCOC(=O)CCSc1ccc(N/C=N/O)cn1` [Comp. 118]: in series [1], the “Inhibition (1 µM)” value was determined as 100.7%. Consider `CCN(CC)CCOCCOc1ccc(N/C=N/O)cn1` [Comp. 122], for which, in series [1], the 50% inhibitory concentration (IC50) came out at 624 nM and the “Inhibition (1 µM)” value was found to be 99.6%. In turn, `CN(C)CCSc1ccc(N/C=N/O)cn1` [Comp. 126] had a melting point of 153.5 to 154.5 °C. The compound `CCN(CC)CCC(Oc1ccc(N/C=N/O)cn1)C(F)(F)F` (stereo not drawn) [Comp. 129] gave a melting point of 109 to 111 °C.
